Earlier results as cited in patent US4477441A, “Renin inhibitors containing a C-terminal disulfide cycle” (Merck & Co., Inc., priority 1983, dated 1984).

Tested on: hog renin
Conditions: nephrectomized rats after injection of hog renin; Gross et al. 1971

## Pepstatin
  blood pressure in vivo: reduce blood pressure in vivo
